How the values were obtained:
Y470F-hDAT = target: T1, Y470F-hDAT (Homo sapiens, UniProt Q01959, Y470F); assay: Competitive inhibition [3H]DA uptake assay in transfected PC12 cells; assay type: cell-based; settings: SRI-20041 12.8 µM
T1 construct: synthetic cDNA encoding hDAT subcloned into pcDNA3.1 +; expressed in transfected cells; host or cells: PC12 cells (ATCC CRL-1721), transient, Lipofectamine 2000, pcDNA3.1+
Text: (§1) Results are presented as mean ± SEM, and n represents the number of independent experiments for each experiment group.

WT hDAT [1] = target: T2, WT hDAT (Homo sapiens, UniProt Q01959); assay: as above; assay type: cell-based; set-up: synthetic cDNA encoding hDAT subcloned into pcDNA3.1 +; expressed in transfected cells; host or cells: PC12 cells (ATCC CRL-1721), transient, Lipofectamine 2000, pcDNA3.1+; settings: SRI-20041 12.8 µM
Text: as §1

[2] = tested on: DA uptake in rat synaptosomes; set-up: method as in PMID 25788711; settings: read-out: Potency for inhibition of DA uptake; cited from earlier work
WT hDAT [3] = target: T2, WT hDAT; assay: Tat-induced inhibition of specific [3H]WIN35,428 binding in CHO cells transfected with WT hDAT; set-up: synthetic cDNA encoding hDAT subcloned into pcDNA3.1 +; expressed in transfected cells; host or cells: CHO cells (ATCC CRL-61), transient, Lipofectamine 2000, pcDNA3.1+
Procedure: CHO cells transfected with WT hDAT were incubated with [^3H]WIN 35,428 (final concentration, 5 nM) with or without recombinant Tat1–86 (rTat1–86) (40 nM, final concentration) on ice for 2 h. […] Data for rTat1–86 and SRI-30827 + rTat1–86 are expressed as the percentage of their respective controls in the absence of rTat1–86 (15675 ± 2982 DPM) and SRI-30827 (14041 ± 3212 DPM) n = 5. *p < 0.05 compared with control value.
PC12 cells were maintained in the incubator (37 °C, 5% CO2) with DMEM medium supplemented with horse serum (15%) and bovine calf serum (2.5%), glutamine (2 mM), and penicillin-streptomycin (100 U/ml). Chinese hamster ovary cells (CHO cells, ATCC, CRL-61) were maintained in F12 medium with 10% fetal bovine serum and antibiotics (100 U/mL penicillin and 100 µg/mL streptomycin). For hDATs transfection, cells were seeded into poly-D-lysine-coated 24 well plates at a density of 1 × 10^5 cells/well. After 24 h, cells were transfected with WT or mutant DAT plasmids using Lipofectamine 2000 (Life Tech, Carlsbad, CA) based on the manufacturer’s instruction. Cells were used for the experiments after 24 h of transfection.

T2 sequence (Q01959 whole entry): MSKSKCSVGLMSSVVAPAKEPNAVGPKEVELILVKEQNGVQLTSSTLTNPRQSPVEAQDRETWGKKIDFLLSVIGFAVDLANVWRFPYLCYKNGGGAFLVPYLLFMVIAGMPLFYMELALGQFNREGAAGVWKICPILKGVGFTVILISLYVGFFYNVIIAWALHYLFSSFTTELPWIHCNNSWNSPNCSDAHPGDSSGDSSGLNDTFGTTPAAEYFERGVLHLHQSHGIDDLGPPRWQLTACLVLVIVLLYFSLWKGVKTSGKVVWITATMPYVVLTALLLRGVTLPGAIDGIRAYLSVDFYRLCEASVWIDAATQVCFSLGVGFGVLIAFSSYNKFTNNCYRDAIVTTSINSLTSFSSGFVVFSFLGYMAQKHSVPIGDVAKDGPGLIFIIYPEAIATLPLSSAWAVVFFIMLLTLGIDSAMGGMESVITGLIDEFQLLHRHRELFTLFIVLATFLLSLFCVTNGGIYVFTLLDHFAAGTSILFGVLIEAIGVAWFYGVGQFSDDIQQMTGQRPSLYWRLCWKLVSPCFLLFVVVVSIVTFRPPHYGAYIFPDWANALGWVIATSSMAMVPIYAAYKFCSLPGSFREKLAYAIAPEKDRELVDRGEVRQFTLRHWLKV
T1 sequence (Q01959 whole entry Y470F): as the sequence (Q01959 whole entry) above, with Y470F counted along it

Structure (SMILES) | Increase of cocaine IC50 of [3H]DA uptake (Y470F-hDAT) | Increase of cocaine IC50 of [3H]DA uptake (WT hDAT [1]) | IC50 [2] | Effect on the specific [3H]WIN35,428 binding (WT hDAT [3]; SRI-30827 50 nM alone) | Specific [3H]WIN35,428 binding (WT hDAT [3]; SRI-30827 50 nM in the absence of rTat1–86, CHO cells, n = 5)
c1ccc(-c2nc(NCCC(c3ccccc3)c3ccccc3)c3ccccc3n2)cc1 [SRI-20041] | ~ 40% | ~ 35% | – | – | –
Cc1cc2nccn2cc1-c1nc(NCC(c2ccccc2)c2ccccc2)c2ccccc2n1 [SRI-30827] | – | – | 0.5 nM | did not alter | 14041 ± 3212 DPM

Reference: paper PMC5473888 (Scientific Reports, 2017)
